In the supplement of paper PMC10307832 one finds relative viability data, which are given here for five compounds.

The first assay concerns LCLC-97TM1. Description: relative viability (nuclei count vs DMSO), 5 days (fraction); higher = more cells survive. Particulars: first compound 0.253 µM. In outline: (§1)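 Relative viability divides the nuclei count in treated wells by that in vehicle wells. Lung cancer cell lines were seeded in 1536-well plates, dosed by pin tool the next day, and fixed and stained after 5 days in one step with final 0.05% Triton X-100, 1% formaldehyde and 1 ug/ml Hoechst. Dosing was a single drug or a fixed anchor-drug dose plus five library-drug doses (not always all listed) in √10 steps, and values are medians of duplicate plates imaged at 4×.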
As to `Nc1cccc2c1CN(C1CCC(=O)NC1=O)C2=O` (centres undefined) [Lenalidomide] + CCNC(=O)c1noc(-c2cc(C(C)C)c(O)cc2O)c1-c1ccc(CN2CCOCC2)cc1 [Luminespib] (partner 0.01 µM), the relative viability was 0.763.
`Nc1cccc2c1CN(C1CCC(=O)NC1=O)C2=O` (centres undefined) [Lenalidomide] + Nc1ncn([C@H]2C[C@H](O)[C@@H](CO)O2)c(=O)n1 [Decitabine] (partner 2 µM): the relative viability came to 0.226.
`Nc1cccc2c1CN(C1CCC(=O)NC1=O)C2=O` (centres undefined) [Lenalidomide] + Cc1nc(Nc2ncc(C(=O)Nc3c(C)cccc3Cl)s2)cc(N2CCN(CCO)CC2)n1 [Dasatinib] (partner 0.075 µM) registered a relative viability of 0.634.
Still for that read-out and setting: for `Nc1cccc2c1CN(C1CCC(=O)NC1=O)C2=O` (centres undefined) [Lenalidomide] + N=C(N)NC(=N)NCCc1ccccc1 [Phenformin] (partner 250 µM) the value was 0.378; for `Nc1cccc2c1CN(C1CCC(=O)NC1=O)C2=O` (centres undefined) [Lenalidomide] + CC(=O)c1c(C)c2cnc(Nc3ccc(N4CCNCC4)cn3)nc2n(C2CCCC2)c1=O [Palbociclib] (partner 0.5 µM), 0.229.

The assay is the same for the next values; noted with them: first compound 0.8 µM.
Compound `Nc1cccc2c1CN(C1CCC(=O)NC1=O)C2=O` (centres undefined) [Lenalidomide] + CCNC(=O)c1noc(-c2cc(C(C)C)c(O)cc2O)c1-c1ccc(CN2CCOCC2)cc1 [Luminespib] (partner 0.01 µM) displayed a relative viability of 0.707.
Regarding `Nc1cccc2c1CN(C1CCC(=O)NC1=O)C2=O` (centres undefined) [Lenalidomide] + Nc1ncn([C@H]2C[C@H](O)[C@@H](CO)O2)c(=O)n1 [Decitabine] (partner 2 µM), the relative viability is 0.236.
Same read-out and setting: under `Nc1cccc2c1CN(C1CCC(=O)NC1=O)C2=O` (centres undefined) [Lenalidomide] + Cc1nc(Nc2ncc(C(=O)Nc3c(C)cccc3Cl)s2)cc(N2CCN(CCO)CC2)n1 [Dasatinib] (partner 0.075 µM) stands 0.939; under `Nc1cccc2c1CN(C1CCC(=O)NC1=O)C2=O` (centres undefined) [Lenalidomide] + N=C(N)NC(=N)NCCc1ccccc1 [Phenformin] (partner 250 µM), 0.409.
As for `Nc1cccc2c1CN(C1CCC(=O)NC1=O)C2=O` (centres undefined) [Lenalidomide] + CC(=O)c1c(C)c2cnc(Nc3ccc(N4CCNCC4)cn3)nc2n(C2CCCC2)c1=O [Palbociclib] (partner 0.5 µM), the relative viability worked out at 0.185.

Staying with this assay, now noted: first compound 2.53 µM.
Compound `Nc1cccc2c1CN(C1CCC(=O)NC1=O)C2=O` (centres undefined) [Lenalidomide] + CCNC(=O)c1noc(-c2cc(C(C)C)c(O)cc2O)c1-c1ccc(CN2CCOCC2)cc1 [Luminespib] (partner 0.01 µM) registered a relative viability of 0.848.
With `Nc1cccc2c1CN(C1CCC(=O)NC1=O)C2=O` (centres undefined) [Lenalidomide] + Nc1ncn([C@H]2C[C@H](O)[C@@H](CO)O2)c(=O)n1 [Decitabine] (partner 2 µM), the relative viability was 0.256.
Still for that read-out and setting: under `Nc1cccc2c1CN(C1CCC(=O)NC1=O)C2=O` (centres undefined) [Lenalidomide] + Cc1nc(Nc2ncc(C(=O)Nc3c(C)cccc3Cl)s2)cc(N2CCN(CCO)CC2)n1 [Dasatinib] (partner 0.075 µM) stands 0.909; under `Nc1cccc2c1CN(C1CCC(=O)NC1=O)C2=O` (centres undefined) [Lenalidomide] + N=C(N)NC(=N)NCCc1ccccc1 [Phenformin] (partner 250 µM), 0.485; under `Nc1cccc2c1CN(C1CCC(=O)NC1=O)C2=O` (centres undefined) [Lenalidomide] + CC(=O)c1c(C)c2cnc(Nc3ccc(N4CCNCC4)cn3)nc2n(C2CCCC2)c1=O [Palbociclib] (partner 0.5 µM), 0.209.

The assay is the same for the next values; noted with them: first compound 8 µM.
As for `Nc1cccc2c1CN(C1CCC(=O)NC1=O)C2=O` (centres undefined) [Lenalidomide] + CCNC(=O)c1noc(-c2cc(C(C)C)c(O)cc2O)c1-c1ccc(CN2CCOCC2)cc1 [Luminespib] (partner 0.01 µM), the relative viability worked out at 0.761.
The compound `Nc1cccc2c1CN(C1CCC(=O)NC1=O)C2=O` (centres undefined) [Lenalidomide] + Nc1ncn([C@H]2C[C@H](O)[C@@H](CO)O2)c(=O)n1 [Decitabine] (partner 2 µM) came in with a relative viability of 0.221.
The same measure, in the same setting: for `Nc1cccc2c1CN(C1CCC(=O)NC1=O)C2=O` (centres undefined) [Lenalidomide] + Cc1nc(Nc2ncc(C(=O)Nc3c(C)cccc3Cl)s2)cc(N2CCN(CCO)CC2)n1 [Dasatinib] (partner 0.075 µM) the value was 0.886; for `Nc1cccc2c1CN(C1CCC(=O)NC1=O)C2=O` (centres undefined) [Lenalidomide] + N=C(N)NC(=N)NCCc1ccccc1 [Phenformin] (partner 250 µM), 0.365.
For `Nc1cccc2c1CN(C1CCC(=O)NC1=O)C2=O` (centres undefined) [Lenalidomide] + CC(=O)c1c(C)c2cnc(Nc3ccc(N4CCNCC4)cn3)nc2n(C2CCCC2)c1=O [Palbociclib] (partner 0.5 µM), the relative viability came to 0.212.

The test system of a further assay is NCI-H1793. The assay is described as above. Particulars: first compound 0.253 µM. In outline:
as §1
`Nc1cccc2c1CN(C1CCC(=O)NC1=O)C2=O` (centres undefined) [Lenalidomide] + CCNC(=O)c1noc(-c2cc(C(C)C)c(O)cc2O)c1-c1ccc(CN2CCOCC2)cc1 [Luminespib] (partner 0.01 µM) yielded a relative viability of 0.173.
On the same count and under the same terms, for `Nc1cccc2c1CN(C1CCC(=O)NC1=O)C2=O` (centres undefined) [Lenalidomide] + Nc1ncn([C@H]2C[C@H](O)[C@@H](CO)O2)c(=O)n1 [Decitabine] (partner 2 µM) the value was 0.464; for `Nc1cccc2c1CN(C1CCC(=O)NC1=O)C2=O` (centres undefined) [Lenalidomide] + Cc1nc(Nc2ncc(C(=O)Nc3c(C)cccc3Cl)s2)cc(N2CCN(CCO)CC2)n1 [Dasatinib] (partner 0.075 µM), 0.349.
Same read-out and setting: for `Nc1cccc2c1CN(C1CCC(=O)NC1=O)C2=O` (centres undefined) [Lenalidomide] + N=C(N)NC(=N)NCCc1ccccc1 [Phenformin] (partner 250 µM) the value was 0.384.
Still for that read-out and setting: under `Nc1cccc2c1CN(C1CCC(=O)NC1=O)C2=O` (centres undefined) [Lenalidomide] + CC(=O)c1c(C)c2cnc(Nc3ccc(N4CCNCC4)cn3)nc2n(C2CCCC2)c1=O [Palbociclib] (partner 0.5 µM) stands 0.363.

The same assay, now with this note: first compound 2.53 µM.
As for `Nc1cccc2c1CN(C1CCC(=O)NC1=O)C2=O` (centres undefined) [Lenalidomide] + CCNC(=O)c1noc(-c2cc(C(C)C)c(O)cc2O)c1-c1ccc(CN2CCOCC2)cc1 [Luminespib] (partner 0.01 µM), the relative viability turned out to be 0.167.
The same measure, in the same setting: under `Nc1cccc2c1CN(C1CCC(=O)NC1=O)C2=O` (centres undefined) [Lenalidomide] + Nc1ncn([C@H]2C[C@H](O)[C@@H](CO)O2)c(=O)n1 [Decitabine] (partner 2 µM) stands 0.535; under `Nc1cccc2c1CN(C1CCC(=O)NC1=O)C2=O` (centres undefined) [Lenalidomide] + Cc1nc(Nc2ncc(C(=O)Nc3c(C)cccc3Cl)s2)cc(N2CCN(CCO)CC2)n1 [Dasatinib] (partner 0.075 µM), 0.412.
The same measure, in the same setting: for `Nc1cccc2c1CN(C1CCC(=O)NC1=O)C2=O` (centres undefined) [Lenalidomide] + N=C(N)NC(=N)NCCc1ccccc1 [Phenformin] (partner 250 µM) the value was 0.515.
